Measured values: US9090596B2, “Disubstituted 3,4-diamino-3-cyclobutene-1,2-dione compounds for use in the treatment of chemokine-mediated pathologies” (GALDERMA RESEARCH & DEVELOPMENT, priority 2011, dated 2015)

Key:
CXCR2 receptor = CXCR2 receptor (Homo sapiens (Human), UniProt P25025); experiment: β-arrestin 2 recruitment test, PathHunter HEK293-CXCR2 cells stimulated with CXCL8; assay type: cell-based; settings: CXCL8 stimulation
Experimental: (§1) The in vitro affinity of the compounds of the present invention for the CXCR1 and CXCR2 receptors was determined on a functional test of the β-arrestin recruitment type after receptor activation.
(§2) β-Arrestin Recruitment Assay:
(§3) “PathHunter HEK293-CXCR2” or “U2OS hCXCR1 β-arrestin” cells (DiscoveRx Corporation) were seeded overnight at 10 000 cells/well (384-well format) in 20 μl of Opti MEM I medium. A preincubation with the antagonist or the vehicle for 30 min at 37° C. and 5% CO2 was followed by 60 minutes of stimulation with CXCL8 at 37° C. and 5% CO2. The cells were then placed at ambient temperature for 30 minutes. The PathHunter detection reagent (DiscoveRx Corporation) was added. […] The data were analyzed by means of a non-linear curve procedure using the XLFit4 exploitation software (IDBS) and the IC50 values were determined.

CXCR1 receptor = CXCR1 receptor (Homo sapiens (Human), UniProt P25024); experiment: β-arrestin 2 recruitment test, U2OS hCXCR1 β-arrestin cells stimulated with CXCL8; assay type: cell-based; settings: CXCL8 stimulation
Experimental: as §1, §2, §3

Chain of CXCR1 receptor (P25024 whole entry): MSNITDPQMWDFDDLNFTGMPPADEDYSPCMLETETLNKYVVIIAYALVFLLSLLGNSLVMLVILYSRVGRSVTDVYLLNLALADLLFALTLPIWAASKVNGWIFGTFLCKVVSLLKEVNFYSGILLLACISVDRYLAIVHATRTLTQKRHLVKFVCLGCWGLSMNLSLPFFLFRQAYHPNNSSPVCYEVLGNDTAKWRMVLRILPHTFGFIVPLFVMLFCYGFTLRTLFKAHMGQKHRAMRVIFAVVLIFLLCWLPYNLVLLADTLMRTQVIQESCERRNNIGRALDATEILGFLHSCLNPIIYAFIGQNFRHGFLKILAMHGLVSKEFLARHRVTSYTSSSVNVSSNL
Chain of CXCR2 receptor (P25025 whole entry): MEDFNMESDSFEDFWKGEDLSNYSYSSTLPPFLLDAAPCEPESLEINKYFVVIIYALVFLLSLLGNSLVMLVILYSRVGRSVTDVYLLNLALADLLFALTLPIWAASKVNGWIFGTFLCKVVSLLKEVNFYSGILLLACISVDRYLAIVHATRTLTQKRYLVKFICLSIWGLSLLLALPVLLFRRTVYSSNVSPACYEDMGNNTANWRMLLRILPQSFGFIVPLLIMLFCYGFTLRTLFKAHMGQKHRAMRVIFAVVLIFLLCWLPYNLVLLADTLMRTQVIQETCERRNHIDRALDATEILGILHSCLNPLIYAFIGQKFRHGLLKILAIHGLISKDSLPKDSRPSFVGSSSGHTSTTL

## COC(=O)C1CCCCN1C(=O)c1cccc(Nc2c(NC(c3ccc(C)o3)C3(C)COC3)c(=O)c2=O)c1 (stereo not drawn)
other
  melting point: 130 to 132 °C

## Cc1ccc(C(Nc2c(Nc3cccc(C(=O)N(C)C)c3O)c(=O)c2=O)C2(C)COC2)o1 (stereo not drawn) [Example 1, 2-hydroxy-N,N-dimethyl-3-(2-{[(5-methylfuran-2-yl)-(3-methyloxetan-3-yl)methyl]amino}-3,4-dioxocyclobut-1-enylamino)benzamide]
other
  melting point: 196 to 198 °C

## CCC1(C(Nc2c(Nc3cccc(C(=O)N(C)C)c3O)c(=O)c2=O)c2ccc(C)o2)COC1 (stereo not drawn) [Example 3, 3-(2-{[(3-ethyloxetan-3-yl)-(5-methylfuran-2-yl)methyl]amino}-3,4-dioxocyclobut-1-enylamino)-2-hydroxy-N,N-dimethylbenzamide]
CXCR2 receptor
  IC50: 106 nM
CXCR1 receptor
  IC50: 1150 nM

## Cc1ccc(C(Nc2c(Nc3cccc(C(=O)O)c3O)c(=O)c2=O)C2(C)COC2)o1 (stereo not drawn) [Example 4, 2-hydroxy-3-(2-{[(5-methylfuran-2-yl)-(3-methyloxetan-3-yl)methyl]amino}-3,4-dioxocyclobut-1-enylamino)benzoic acid]
other
  melting point: 180 to 185 °C

## Cc1ccc(C(Nc2c(Nc3cccc(C(=O)N4CC[C@@H](O)C4)c3O)c(=O)c2=O)C2(C)COC2)o1 (stereo partly drawn) [Example 5, 3-[2-hydroxy-3-((R)-3-hydroxypyrrolidine-1-carbonyl)phenylamino]-4-{[(5-methylfuran-2-yl)-(3-methyloxetan-3-yl)methyl]amino}cyclobut-3-ene-1,2-dione]
CXCR2 receptor
  IC50: 341 nM
CXCR1 receptor
  IC50: 2620 nM

## Cc1ccc(C(Nc2c(Nc3cccc(C(=O)N4CC[C@H](O)C4)c3O)c(=O)c2=O)C2(C)COC2)o1 (stereo partly drawn) [Example 6, 3-[2-hydroxy-3-((S)-3-hydroxypyrrolidine-1-carbonyl)phenylamino]-4-{[(5-methylfuran-2-yl)-(3-methyloxetan-3-yl)methyl]amino}cyclobut-3-ene-1,2-dione]
CXCR2 receptor
  IC50: 1090 nM
CXCR1 receptor
  IC50: 2840 nM

## COC(=O)[C@@H]1CCCN1C(=O)c1cccc(Nc2c(N[C@@H](c3ccc(C)o3)C3(C)COC3)c(=O)c2=O)c1O [Example 9, methyl (S)-1-[2-hydroxy-3-(2-{[(R)-(5-methylfuran-2-yl)-(3-methyloxetan-3-yl)methyl]amino}-3,4-dioxocyclobut-1-enylamino)benzoyl]pyrrolidine-2-carboxylate]
CXCR2 receptor
  IC50: 60 nM
CXCR1 receptor
  IC50: 666 nM

## Cc1ccc(C(Nc2c(Nc3cccc(C(=O)C(C)C)c3O)c(=O)c2=O)C2(C)COC2)o1 (stereo not drawn) [Example 12, 3-(2-hydroxy-3-isobutyrylphenylamino)-4-{[(5-methylfuran-2-yl)-(3-methyloxetan-3-yl)methyl]amino}cyclobut-3-ene-1,2-dione]
CXCR2 receptor
  IC50: 100 nM
CXCR1 receptor
  IC50: 10000 nM

## Cc1ccc(C(Nc2c(Nc3cccc(C(=O)N4CCCC4)c3O)c(=O)c2=O)C2(C)COC2)o1 (stereo not drawn) [Example 14, 3-[2-hydroxy-3-(pyrrolidine-1-carbonyl)phenylamino]-4-{[(5-methylfuran-2-yl)-(3-methyloxetan-3-yl)methyl]amino}cyclobut-3-ene-1,2-dione]
CXCR2 receptor
  IC50: 262 nM
CXCR1 receptor
  IC50: 1300 nM

## Cc1ccc(C(Nc2c(Nc3cccc(C(=O)N4CCOCC4)c3O)c(=O)c2=O)C2(C)COC2)o1 (stereo not drawn) [Example 15, 3-[2-hydroxy-3-(morpholine-4-carbonyl)phenylamino]-4-{[(5-methylfuran-2-yl)-(3-methyloxetan-3-yl)methyl]amino}cyclobut-3-ene-1,2-dione]
CXCR2 receptor
  IC50: 626 nM
CXCR1 receptor
  IC50: 3170 nM

## Cc1ccc(C(Nc2c(Nc3cccn(C)c3=O)c(=O)c2=O)C2(C)COC2)o1 (stereo not drawn) [Example 19, 3-{[(5-methylfuran-2-yl)-(3-methyloxetan-3-yl)methyl]amino}-4-(1-methyl-2-oxo-1,2-dihydropyridin-3-ylamino)cyclobut-3-ene-1,2-dione]
CXCR2 receptor
  IC50: 394 nM
CXCR1 receptor
  IC50: 4960 nM

## Cc1ccc(C(Nc2c(Nc3cccnc3O)c(=O)c2=O)C2(C)COC2)o1 (stereo not drawn) [Example 20, 3-(2-hydroxypyridin-3-ylamino)-4-{[(5-methylfuran-2-yl)-(3-methyloxetan-3-yl)methyl]amino}-cyclobut-3-ene-1,2-dione]
CXCR2 receptor
  IC50: 335 nM
CXCR1 receptor
  IC50: 6620 nM

## Cc1ccc(C(Nc2c(Nc3cccc4nn[nH]c34)c(=O)c2=O)C2(C)COC2)o1 (stereo not drawn) [Example 23, 3-(3H-benzotriazol-4-ylamino)-4-{[(5-methylfuran-2-yl)-(3-methyloxetan-3-yl)methyl]amino}cyclobut-3-ene-1,2-dione]
other
  melting point: 178 to 180 °C

## COc1cccc(C(Nc2c(Nc3cccc(C(=O)N(C)C)c3O)c(=O)c2=O)C2(C)COC2)c1 (stereo not drawn) [Example 28, 3-(2-{[(3-methyloxetan-3-yl)-(3-methoxyphenyl)methyl]-amino}-3,4-dioxocyclobut-1-enylamino)-2-hydroxy-N,N-dimethylbenzamide]
CXCR2 receptor
  IC50: 475 nM
CXCR1 receptor
  IC50: 5540 nM

## COc1ccc(C(Nc2c(Nc3cccc(C(=O)N(C)C)c3O)c(=O)c2=O)C2(C)COC2)cc1 (stereo not drawn) [Example 29, 3-(2-{[(3-methyloxetan-3-yl)-(4-methoxyphenyl)methyl]amino}-3,4-dioxocyclobut-1-enylamino)-2-hydroxy-N,N-dimethylbenzamide]
CXCR2 receptor
  IC50: 433 nM

## CN(C)C(=O)c1cccc(Nc2c(NC(c3ccc4c(c3)OCO4)C3(C)COC3)c(=O)c2=O)c1O (stereo not drawn) [Example 30, 3-(2-{[benzo[1,3]dioxol-5-yl-(3-methyloxetan-3-yl)methyl]amino}-3,4-dioxocyclobut-1-enylamino)-2-hydroxy-N,N-dimethylbenzamide]
CXCR2 receptor
  IC50: 349 nM
CXCR1 receptor
  IC50: 2240 nM

## CN(C)C(=O)c1cccc(Nc2c(NC(c3cccs3)C3(C)COC3)c(=O)c2=O)c1O (stereo not drawn) [Example 34, 2-hydroxy-N,N-dimethyl-3-(2-{[(3-methyloxetan-3-yl)thiophen-2-ylmethyl]amino}-3,4-dioxocyclobut-1-enylamino)benzamide]
CXCR2 receptor
  IC50: 106 nM
CXCR1 receptor
  IC50: 1610 nM

## CN(C)C(=O)c1cccc(Nc2c(NC(c3ccco3)C3(C)COC3)c(=O)c2=O)c1O (stereo not drawn) [Example 36, 3-(2-{[furan-2-yl-(3-methyloxetan-3-yl)methyl]amino}-3,4-dioxocyclobut-1-enylamino)-2-hydroxy-N,N-dimethylbenzamide]
CXCR2 receptor
  IC50: 198 nM
CXCR1 receptor
  IC50: 1710 nM

## Cc1coc(C(Nc2c(Nc3cccc(C(=O)N(C)C)c3O)c(=O)c2=O)C2(C)COC2)c1 (stereo not drawn) [Example 37a, 2-hydroxy-N,N-dimethyl-3-(2-{[(4-methylfuran-2-yl)-(3-methyloxetan-3-yl)methyl]amino}-3,4-dioxocyclobut-1-enylamino)benzamide]
CXCR2 receptor
  IC50: 32 nM
CXCR1 receptor
  IC50: 827 nM

## Cc1ccoc1C(Nc1c(Nc2cccc(C(=O)N(C)C)c2O)c(=O)c1=O)C1(C)COC1 (stereo not drawn) [Example 37b, 2-Hydroxy-N,N-dimethyl-3-(2-{[(3-methylfuran-2-yl)-(3-methyloxetan-3-yl)methyl]amino}-3,4-dioxocyclobut-1-enylamino)benzamide]
CXCR2 receptor
  IC50: 207 nM
CXCR1 receptor
  IC50: 7690 nM

## CC(C)c1coc(C(Nc2c(Nc3cccc(C(=O)N(C)C)c3O)c(=O)c2=O)C2(C)COC2)c1 (stereo not drawn) [Example 38, 2-hydroxy-N,N-dimethyl-3-(2-{[(4-isopropylfuran-2-yl)-(3-methyloxetan-3-yl)methyl]amino}-3,4-dioxocyclobut-1-enylamino)benzamide]
CXCR2 receptor
  IC50: 25 nM
CXCR1 receptor
  IC50: 322 nM

## COc1ccc(Nc2c(NC(c3ccc(C)o3)C3(C)COC3)c(=O)c2=O)c(O)n1 (stereo not drawn) [Example 39, 3-(2-hydroxy-6-mèthoxypyridin-3-ylamino)-4-{[(5-methylfuran-2-yl)-(3-methyloxetan-3-yl)methyl]amino}cyclobut-3-ene-1,2-dione]
CXCR2 receptor
  IC50: 1040 nM
CXCR1 receptor
  IC50: 10000 nM

## Cc1ccc(C(Nc2c(Nc3ccc(Cl)nc3O)c(=O)c2=O)C2(C)COC2)o1 (stereo not drawn) [Example 40, 3-(6-chloro-2-hydroxypyridin-3-ylamino)-4-{[(5-methylfuran-2-yl)-(3-methyloxetan-3-yl)methyl]amino}cyclobut-3-ene-1,2-dione]
CXCR2 receptor
  IC50: 502 nM
CXCR1 receptor
  IC50: 5220 nM

## Cc1ccc(C(Nc2c(Nc3cccc(C#N)c3O)c(=O)c2=O)C2(C)COC2)o1 (stereo not drawn) [Example 42, 2-hydroxy-3-(2-{[(5-methylfuran-2-yl)-(3-methyloxetan-3-yl)methyl]amino}-3,4-dioxocyclobut-1-enylamino)benzonitrile]
CXCR2 receptor
  IC50: 311 nM

## Cc1ccc([C@H](Nc2c(Nc3cccc(C(=O)N(C)CC(F)(F)F)c3O)c(=O)c2=O)C2(C)COC2)o1 [Example 48, 2-hydroxy-N-methyl-3-(2-{[(R)-(5-methylfuran-2-yl)-(3-methyloxetan-3-yl)methyl]amino}-3,4-dioxocyclobut-1-enylamino)-N-(2,2,2-trifluoroethyl)benzamide]
CXCR2 receptor
  IC50: 26 nM
CXCR1 receptor
  IC50: 566 nM

## COC(=O)CN(C)C(=O)c1cccc(Nc2c(N[C@@H](c3ccc(C)o3)C3(C)COC3)c(=O)c2=O)c1O [Example 51, methyl {[2-hydroxy-3-(2-{[(R)-(5-methylfuran-2-yl)-(3-methyloxetan-3-yl)methyl]amino}-3,4-dioxocyclobut-1-enylamino)benzoyl]methylamino}acetate]
CXCR2 receptor
  IC50: 72 nM
CXCR1 receptor
  IC50: 650 nM

## Cc1ccc([C@H](Nc2c(Nc3ccc(Cl)c(C(=O)N(C)C)c3O)c(=O)c2=O)C2(C)COC2)o1 [Example 52, 6-chloro-2-hydroxy-N,N-dimethyl-3-(2-{[(R)-(5-methylfuran-2-yl)-(3-methyloxetan-3-yl)methyl]amino}-3,4-dioxocyclobut-1-enylamino)benzamide]
CXCR2 receptor
  IC50: 373 nM
CXCR1 receptor
  IC50: 897 nM
